Data: patent US7452678B2, “Identification of biomarkers for liver toxicity” (Bristol-Myers Squibb Company, priority 2003, dated 2008)
pIC50: −log10 of the molar value. Values belong to the compound of their own block, whether it stands above or below them.

Columns and labels:
[1] = Cytotoxicity in the hepatocyte culture system, inhibition of ATP synthesis (CellTiter-Glo bioluminescence); type: cell-based, human; conditions: human; hepatotoxic drugs were dosed at their IC50 for cytotoxicity, inhibition of ATP synthesis as endpoint; read-out: Concentration (IC50 value for cytotoxicity)
From the text: (§1) These immortalized cells are reported to be similar to quiescent normal human hepatocytes. […] The THLE-5 cell line (also named THLE-5B) was previously deposited under the terms and conditions of the Budapest Treaty at the American Type Culture Collection on Apr.
(§2) The cell line THLE-5B-3A4, which expresses the 3A4 isoform of cytochrome P450, was derived by transfection of THLE-5B-c15 with a CMV expression vector comprising a human cDNA coding for the specific P450 isoenzyme and a selection marker, using methods known in the art.
(§3) For the purposes of this study, the non-hepatotoxic drugs were administered at 50 μM (Table 1).

HHA Cells = test: as above; type: cell-based, human
From the text: as §1, §2, §3

THLE-5B-3A4 [2] = test: LC/LC/MS/MS peptide hits of biomarker polypeptides in conditioned media of treated hepatocytes; type: cell-based, human; conditions: 20 hr, concentrations of Table 1
Method: Cells were incubated for 20 hr at 37° C.
Following a single thaw in a 1 L cylinder of water at room temperature, the filtered media were concentrated by centrifugal filtration (10 kDa, Pall Gelman Laboratory, Ann Arbor, Mich.). […] After reduction, 500 nmol of iodoacetamide (Sigma) was added to each sample and incubated in the dark at room temperature for an additional 30 min. Finally, samples were diluted four-fold and 20 μg of TPCK-treated porcine trypsin (Promega, Madison, Wis.) was added to each sample prior to incubation for 18 hr at 37° C. Samples were subsequently desalted using separate C18 spin columns (Nest Group, Southboro, Mass.) before injection onto the LC/LC/MS/MS system.
The capillary column was first packed with 10 cm of C18 reversed-phase material (SelfPack Poros 10 R2, ABI, Framingham, Mass.), and this was followed by 5 cm of strong cation exchange material (Poros 20 HS SCX, ABI). A load of 200 μg of digested material, based on the total protein assay, was used for each analysis.
Each analysis included a salt step, followed by buffer wash, then a reversed phase run of increasing organic concentration. Following the completion of each successive reversed phase gradient, the salt concentration was increased, and the cycle was begun again (FIG. 2).
This separation included a 100 min analysis with a gradient of 0-40% Buffer A to B for 0 to 75 min, 40-100% B for 75-85 min, 100-0% B for 85-90 min, and finally a re-equilibration hold at 0% B for 90-100 min. The aforementioned gradients were delivered by a binary pump (1100, Agilent, Wilmington, Del.), which was split 1:200 prior to connection to the capillary column.
The mass spectrometer's capillary temp was set to 200° C., and the spray voltage was set to 2 kV. In survey scan mode, two microscans were used to acquire 9e^7 counts, with a maximum acquisition time of 1000 msec. In MS/MS mode, 3 microscans were used to acquire 2e^7 counts, with a maximum acquisition time of 300 msec. The instrument was set to trigger data dependent fragmentation of the three most intense ions detected during the MS survey scan.
The output file from the […] program was then downloaded to desktop spreadsheet programs for further statistical analysis (Excel, Microsoft, Redmond, Wash.).

THLE-5B-3A4 [3] = tested on: THLE-5B-3A4
Method: When the cells reached confluence, the medium was removed by aspiration, and replaced with 30 ml of serum and transferrin free PMRF-4 medium (SFM) containing either vehicle (0.5% DMSO) or compound in 0.5% DMSO.
Cells were incubated for 20 hr at 37° C. Conditioned media (i.e., media incubated with cells) was collected by decanting, then syringe-filtered through 0.22 μm membrane, and stored at −70° C. before preparation for LC/LC/MS/MS analysis.
Following electrophoresis, the proteins were transferred to PVDF membrane at 30 V for 1 hr. […] Following incubation with an anti-rabbit secondary antibody (1:5000 dilution, Sigma), bands were visualized using an enhanced chemiluminescent detection system (ECL+, Amersham, Piscataway, N.J.) and imaged using a cooled charge-coupled device camera (Fluor S-Max, Bio-Rad, Hercules, Calif.). The signals from the blots were quantified using Quantity One software (Bio-Rad).
Conditioned media samples used to identify the proteins were assayed by blotting to determine presence and relative concentrations of the proteins as a function of each treatment. This was done to verify the accuracy of the mass spectral data (Table 3) and to increase the precision of the quantitative measurements.

[4] = Table 1, 8 treatments of the discovery panel
[5] = Table 2, panel of 20 treatments

peptide hits BMS-PTX-062 (THLE-5B-3A4 [2]): 27
peptide hits BMS-PTX-120 (THLE-5B-3A4 [2]): 44
peptide hits BMS-PTX-225 (THLE-5B-3A4 [2]): 25
peptide hits BMS-PTX-254 (THLE-5B-3A4 [2]): 28
peptide hits BMS-PTX-260 (THLE-5B-3A4 [2]): 24
peptide hits BMS-PTX-265 (THLE-5B-3A4 [2]): 93
peptide hits BMS-PTX-447 (THLE-5B-3A4 [2]): 82
peptide hits BMS-PTX-459 (THLE-5B-3A4 [2]): 31
peptide hits BMS-PTX-607 (THLE-5B-3A4 [2]): 6
peptide hits BMS-PTX-749 (THLE-5B-3A4 [2]): 142
peptide hits BMS-PTX-808 (THLE-5B-3A4 [2]): 14
peptide hits BMS-PTX-837 (THLE-5B-3A4 [2]): 25
peptide hits BMS-PTX-860 (THLE-5B-3A4 [2]): 9
peptide hits BMS-PTX-(29)147 (THLE-5B-3A4 [2]): 239
peptide hits BMS-PTX-(39)147 (THLE-5B-3A4 [2]): 36
Compound: CC1(COc2ccc(CC3SC(=O)NC3=O)cc2)CCCCC1 (stereo not shown) [Ciglitazone]
pIC50 [1]: 4.42
Toxicity in HHA Cells (HHA Cells; [4]): Toxic
Toxicity in HHA Cells (HHA Cells; [5]): Toxic
change in levels of BMS-PTX-265 (THLE-5B-3A4 [3]): statistically significant (p<0.05) increase

Compound: O=C1CN(/N=C/c2ccc(-c3ccc([N+](=O)[O-])cc3)o2)C(O)=N1 [Dantrolene]
Toxicity in HHA Cells (HHA Cells; [5]): Toxic

Compound: O=C(O)Cc1ccccc1Nc1c(Cl)cccc1Cl [Diclofenac]
Toxicity in HHA Cells (HHA Cells; [5]): Non-Toxic

Compound: C#C[C@]1(O)CC[C@H]2[C@@H]3CCc4cc(O)ccc4[C@H]3CC[C@@]21C [Ethinyl Estradiol]
Toxicity in HHA Cells (HHA Cells; [5]): Non-Toxic

peptide hits BMS-PTX-062 (THLE-5B-3A4 [2]): 29
peptide hits BMS-PTX-120 (THLE-5B-3A4 [2]): 35
peptide hits BMS-PTX-225 (THLE-5B-3A4 [2]): 10
peptide hits BMS-PTX-254 (THLE-5B-3A4 [2]): 14
peptide hits BMS-PTX-260 (THLE-5B-3A4 [2]): 21
peptide hits BMS-PTX-265 (THLE-5B-3A4 [2]): 49
peptide hits BMS-PTX-447 (THLE-5B-3A4 [2]): 54
peptide hits BMS-PTX-459 (THLE-5B-3A4 [2]): 24
peptide hits BMS-PTX-607 (THLE-5B-3A4 [2]): 13
peptide hits BMS-PTX-749 (THLE-5B-3A4 [2]): 87
peptide hits BMS-PTX-808 (THLE-5B-3A4 [2]): 10
peptide hits BMS-PTX-837 (THLE-5B-3A4 [2]): 15
peptide hits BMS-PTX-860 (THLE-5B-3A4 [2]): 15
peptide hits BMS-PTX-(29)147 (THLE-5B-3A4 [2]): 128
peptide hits BMS-PTX-(39)147 (THLE-5B-3A4 [2]): 24
Compound: Cc1oc(-c2ccccc2)nc1CCOc1ccc(C[C@H](Nc2ccccc2C(=O)c2ccccc2)C(=O)O)cc1 [Farglitazar]
pIC50 [1]: 5.06
Toxicity in HHA Cells (HHA Cells; [4]): Toxic
Toxicity in HHA Cells (HHA Cells; [5]): Toxic
change in levels of BMS-PTX-265 (THLE-5B-3A4 [3]): statistically significant (p<0.05) increase

Compound: CC(C)Cc1ccc(C(C)C(=O)O)cc1 (stereo not shown) [Ibuprofen]
Toxicity in HHA Cells (HHA Cells; [5]): Non-Toxic

Compound: C1CCC(C(CC2CCCCN2)C2CCCCC2)CC1 (stereo not shown) [Perhexilene]
Toxicity in HHA Cells (HHA Cells; [5]): Toxic

Compound: CCc1ccc(CCOc2ccc(CC3SC(=O)NC3=O)cc2)nc1 (stereo not shown) [Pioglitazone]
Toxicity in HHA Cells (HHA Cells; [5]): Non-Toxic

Compound: CCO[C@@H](Cc1ccc(OCCN2c3ccccc3Oc3ccccc32)cc1)C(=O)O [Ragaglitazar]
Toxicity in HHA Cells (HHA Cells; [5]): Non-Toxic

Compound: O=C(c1ccc(OCCN2CCCCC2)cc1)c1c(-c2ccc(O)cc2)sc2cc(O)ccc12 [Raloxifene]
Toxicity in HHA Cells (HHA Cells; [5]): Toxic

Compound: CC(C)c1nc(CN(C)C(=O)N[C@H](C(=O)N[C@@H](Cc2ccccc2)C[C@H](O)[C@H](Cc2ccccc2)NC(=O)OCc2cncs2)C(C)C)cs1 [Ritonavir]
Toxicity in HHA Cells (HHA Cells; [4]): Toxic
Toxicity in HHA Cells (HHA Cells; [5]): Toxic

Compound: CN(CCOc1ccc(CC2SC(=O)NC2=O)cc1)c1ccccn1 (stereo not shown) [Rosiglitazone]
Toxicity in HHA Cells (HHA Cells; [4]): Non-Toxic
Toxicity in HHA Cells (HHA Cells; [5]): Non-Toxic

Compound: CC/C(=C(\c1ccccc1)c1ccc(OCCN(C)C)cc1)c1ccccc1 [Tamoxifen]
Toxicity in HHA Cells (HHA Cells; [5]): Toxic

peptide hits BMS-PTX-062 (THLE-5B-3A4 [2]): 1
peptide hits BMS-PTX-120 (THLE-5B-3A4 [2]): 3
peptide hits BMS-PTX-225 (THLE-5B-3A4 [2]): 0
peptide hits BMS-PTX-254 (THLE-5B-3A4 [2]): 1
peptide hits BMS-PTX-260 (THLE-5B-3A4 [2]): 0
peptide hits BMS-PTX-265 (THLE-5B-3A4 [2]): 8
peptide hits BMS-PTX-447 (THLE-5B-3A4 [2]): 6
peptide hits BMS-PTX-459 (THLE-5B-3A4 [2]): 8
peptide hits BMS-PTX-607 (THLE-5B-3A4 [2]): 0
peptide hits BMS-PTX-749 (THLE-5B-3A4 [2]): 6
peptide hits BMS-PTX-808 (THLE-5B-3A4 [2]): 1
peptide hits BMS-PTX-837 (THLE-5B-3A4 [2]): 8
peptide hits BMS-PTX-860 (THLE-5B-3A4 [2]): 0
peptide hits BMS-PTX-(29)147 (THLE-5B-3A4 [2]): 31
peptide hits BMS-PTX-(39)147 (THLE-5B-3A4 [2]): 1
Compound: CCO[C@@H](Cc1ccc(OCCc2ccc(OS(C)(=O)=O)cc2)cc1)C(=O)O [Tesaglitazar]
Toxicity in HHA Cells (HHA Cells; [4]): Non-Toxic
Toxicity in HHA Cells (HHA Cells; [5]): Non-Toxic

Compound: CN1CCN(CCCN2c3ccccc3Sc3ccc(C(F)(F)F)cc32)CC1 [Trifluoperazine]
Toxicity in HHA Cells (HHA Cells; [5]): Toxic

peptide hits BMS-PTX-062 (THLE-5B-3A4 [2]): 4
peptide hits BMS-PTX-120 (THLE-5B-3A4 [2]): 12
peptide hits BMS-PTX-225 (THLE-5B-3A4 [2]): 11
peptide hits BMS-PTX-254 (THLE-5B-3A4 [2]): 7
peptide hits BMS-PTX-260 (THLE-5B-3A4 [2]): 4
peptide hits BMS-PTX-265 (THLE-5B-3A4 [2]): 66
peptide hits BMS-PTX-447 (THLE-5B-3A4 [2]): 33
peptide hits BMS-PTX-459 (THLE-5B-3A4 [2]): 14
peptide hits BMS-PTX-607 (THLE-5B-3A4 [2]): 7
peptide hits BMS-PTX-749 (THLE-5B-3A4 [2]): 60
peptide hits BMS-PTX-808 (THLE-5B-3A4 [2]): 10
peptide hits BMS-PTX-837 (THLE-5B-3A4 [2]): 17
peptide hits BMS-PTX-860 (THLE-5B-3A4 [2]): 4
peptide hits BMS-PTX-(29)147 (THLE-5B-3A4 [2]): 67
peptide hits BMS-PTX-(39)147 (THLE-5B-3A4 [2]): 19
Compound: Cc1c(C)c2c(c(C)c1O)CCC(C)(COc1ccc(CC3SC(=O)NC3=O)cc1)O2 (stereo not shown) [Troglitazone]
pIC50 [1]: 4.49
Toxicity in HHA Cells (HHA Cells; [4]): Toxic
Toxicity in HHA Cells (HHA Cells; [5]): Toxic
change in levels of BMS-PTX-265 (THLE-5B-3A4 [3]): statistically significant (p<0.05) increase
